Experimental data taken from ChEMBL document CHEMBL1221220, “Transport and signaling via the amino acid binding site of the yeast Gap1 amino acid transceptor” (Nat Chem Biol, 2009).
Numbering of substitutions follows the chain as printed. Active and inactive are the calls of the source. The calls are words filed in the database; no cut-off is given here.

Experiments:
[1] = test system: T1, General amino-acid permease GAP1 (Saccharomyces cerevisiae), P19145 [A396C]; assay: Activation of yeast Gap1 A396C mutant-mediated amino acid uptake at 10 mM
T1 sequence (whole entry): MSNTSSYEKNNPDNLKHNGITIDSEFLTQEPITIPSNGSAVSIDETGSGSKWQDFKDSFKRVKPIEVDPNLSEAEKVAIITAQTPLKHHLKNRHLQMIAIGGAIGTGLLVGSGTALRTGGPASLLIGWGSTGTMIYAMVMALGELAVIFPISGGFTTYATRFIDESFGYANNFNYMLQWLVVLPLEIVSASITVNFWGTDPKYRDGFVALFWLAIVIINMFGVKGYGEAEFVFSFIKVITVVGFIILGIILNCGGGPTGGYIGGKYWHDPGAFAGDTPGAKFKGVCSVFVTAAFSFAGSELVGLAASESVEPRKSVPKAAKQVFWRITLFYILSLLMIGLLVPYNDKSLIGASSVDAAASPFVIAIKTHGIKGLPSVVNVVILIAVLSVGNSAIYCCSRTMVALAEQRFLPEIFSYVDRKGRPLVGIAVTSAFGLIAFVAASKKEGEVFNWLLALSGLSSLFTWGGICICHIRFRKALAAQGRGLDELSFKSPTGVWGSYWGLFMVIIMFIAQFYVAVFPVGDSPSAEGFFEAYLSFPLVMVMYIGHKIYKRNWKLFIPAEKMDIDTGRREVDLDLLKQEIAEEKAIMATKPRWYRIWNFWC

[2] = test system: T2, General amino-acid permease GAP1 (Saccharomyces cerevisiae), P19145 [R399C]; assay: Activation of yeast Gap1 R399C mutant-mediated amino acid uptake at 10 mM
T2 sequence (whole entry): T1 sequence (whole entry) with C396A, R399C

[3] = test system: General amino-acid permease GAP1 (Saccharomyces cerevisiae), P19145 [V402C]; assay: Inhibition of yeast Gap1 V402C mutant-mediated amino acid uptake at 10 mM
Chain of General amino-acid permease GAP1 (Saccharomyces cerevisiae), P19145 [V402C] (P19145 whole entry V402C): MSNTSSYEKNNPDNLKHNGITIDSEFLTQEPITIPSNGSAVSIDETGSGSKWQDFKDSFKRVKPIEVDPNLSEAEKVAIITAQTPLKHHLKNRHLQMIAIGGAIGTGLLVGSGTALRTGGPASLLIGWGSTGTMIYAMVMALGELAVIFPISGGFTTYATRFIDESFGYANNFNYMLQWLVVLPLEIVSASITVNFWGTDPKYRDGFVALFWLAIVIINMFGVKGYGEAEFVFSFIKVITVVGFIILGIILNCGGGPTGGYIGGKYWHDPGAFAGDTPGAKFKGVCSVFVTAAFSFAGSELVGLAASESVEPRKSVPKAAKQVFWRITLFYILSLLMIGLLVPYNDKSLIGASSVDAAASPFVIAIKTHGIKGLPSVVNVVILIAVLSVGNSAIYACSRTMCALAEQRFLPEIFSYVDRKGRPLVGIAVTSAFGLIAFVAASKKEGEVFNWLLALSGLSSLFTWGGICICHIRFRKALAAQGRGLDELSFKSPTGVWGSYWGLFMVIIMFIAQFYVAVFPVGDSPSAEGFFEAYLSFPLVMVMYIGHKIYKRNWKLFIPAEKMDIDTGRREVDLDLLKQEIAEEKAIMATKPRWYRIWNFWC

[4] = test system: General amino-acid permease GAP1 (Saccharomyces cerevisiae), P19145 [S392C]; assay: Inhibition of yeast Gap1 S392C mutant-mediated trehalose activation at 10 mM
Chain of General amino-acid permease GAP1 (Saccharomyces cerevisiae), P19145 [S392C] (P19145 whole entry S392C): as the sequence (P19145 whole entry V402C) above, with S392C, C402V counted along it

[5] = test system: General amino-acid permease GAP1 (Saccharomyces cerevisiae), P19145 [V402C]; assay: Inhibition of yeast Gap1 V402C mutant-mediated trehalose activation at 10 mM
Saccharomyces cerevisiae = assay: Induction of yeast Gap1 L404 mutant-mediated trehalose activation at 2 mM in presence of 10 mM MTSEA treated before compound addition
[6] = test system: T3, General amino-acid permease GAP1 (Saccharomyces cerevisiae), P19145 [A385C]; assay: Induction of yeast Gap1 A385C mutant-mediated amino acid uptake at 2 mM in presence of 10 mM MTSEA treated before compound addition
T3 sequence (whole entry): T1 sequence (whole entry) with A385C, C396A

[7] = test system: T2, General amino-acid permease GAP1 (Saccharomyces cerevisiae), P19145 [R399C]; assay: Induction of yeast Gap1 R399C mutant-mediated amino acid uptake at 2 mM in presence of 10 mM MTSEA treated before compound addition
[8] = test system: T4, General amino-acid permease GAP1 (Saccharomyces cerevisiae), P19145 [M401C]; assay: Induction of yeast Gap1 M401C mutant-mediated amino acid uptake at 2 mM in presence of 10 mM MTSEA treated before compound addition
T4 sequence (whole entry): T1 sequence (whole entry) with C396A, M401C

Q: What does the source list for `NC(=O)NCCC[C@H](N)C(=O)O`?
A: Activity [1]: inactive; Activity [2]: inactive; inhibition [3]: Active; inhibition [4]: Active; inhibition [5]: Active; inhibition (Saccharomyces cerevisiae): Active; Activity [6]: Active; Activity [7]: Active; Activity [8]: Active
